pIC50: −log10 of the molar value. Where a name gives a salt, the structure may show the parent alone.

For the assay, the species on record is Rattus norvegicus. Description: Vasodilatory activity in Wistar rat thoracic aorta rings assessed as inhibition of norepinephrine hydrochloride-induced contraction. Format: functional.
With `CCN1CC[C@@]2(OC)OC(N)=C(C#N)[C@@H](c3ccccc3)[C@@H]2C1`, the pIC50 was 3.17.
Regarding `CO[C@@]12CCN(C)C[C@H]1[C@H](c1ccc(Cl)cc1)C(C#N)=C(N)O2`, the pIC50 was 3.43.
On to `CCN1CC[C@@]2(OC)OC(N)=C(C#N)[C@@H](c3ccc(Cl)cc3)[C@@H]2C1`, for which the pIC50 was 3.40.
As to `CO[C@@]12CCN(C)C[C@H]1[C@H](c1ccc(F)cc1)C(C#N)=C(N)O2`, the pIC50 is 3.28.
For the compound `CO[C@@]12CCN(C)C[C@H]1[C@H](c1ccc(C)cc1)C(C#N)=C(N)O2`, the pIC50 is 3.22.
Regarding `COc1ccc([C@@H]2C(C#N)=C(N)O[C@]3(OC)CCN(C)C[C@@H]23)cc1`, the pIC50 is 3.52.
Take `CCN1CC[C@@]2(OC)OC(N)=C(C#N)[C@@H](c3ccc(OC)cc3)[C@@H]2C1`: the pIC50 was 3.17.
Take `CO[C@@]12CCN(C)C[C@H]1[C@H](c1cccs1)C(C#N)=C(N)O2`: the pIC50 is 3.17.
As to `CCN1CC[C@@]2(OC)OC(N)=C(C#N)[C@@H](c3cccs3)[C@@H]2C1`, the pIC50 is 3.31.
With `CO[C@@]12CCN(C)C[C@H]1[C@H](c1ccc(N3CCCCC3)cc1)C(C#N)=C(N)O2`, the pIC50 is 3.35.
Consider `CCN1CC[C@@]2(OC)OC(N)=C(C#N)[C@@H](c3ccc(N4CCCCC4)cc3)[C@@H]2C1`, for which the pIC50 is 3.32.
In the case of `CO[C@@]12CCN(C)C[C@H]1[C@H](c1ccc(N3CCOCC3)cc1)C(C#N)=C(N)O2`, the pIC50 is 3.13.
`CCN1CC[C@@]2(OC)OC(N)=C(C#N)[C@@H](c3ccc(N4CCOCC4)cc3)[C@@H]2C1`: the pIC50 was 3.19.
Consider `CO[C@@]12CCN(C)C[C@H]1[C@H](c1ccccc1)C(C#N)=C(N)O2`, for which the pIC50 is 3.14.
Consider `COc1cc2nc(N3CCN(C(=O)c4ccco4)CC3)nc(N)c2cc1OC` [PRAZOSIN HYDROCHLORIDE], for which the pIC50 was 3.31.

A word on the pIC50: it is the negative decadic logarithm of the IC50, by convention in mol/L.
